Literature values, collected in article PMC11451938 (RSC Medicinal Chemistry, 2024).

Target: hNTS1
Conditions: read-out: NTS1 Ki; CHO-K1 cells expressing hNTS1

Ki: 4 nM
Substance: JMV 438: NT[8-13] in which the Arg8-Arg9 fragment was replaced with Lys8-Lys9
